How the values were obtained:
Triticum aestivum = assay: Drought stress test on wheat Part D, reduction in damage intensity from fresh weights; type: in vivo; settings: efficacy = reduction in damage intensity (fresh weight) under drought stress, 25 g/ha, at least three repeats
Text: Wheat grains were sown in a standardized number in sandy loam soil plastic pots, covered with soil or sand and grown in a greenhouse under good growth conditions. Pots with uneven degrees of emergence were excluded prior to the start of the trial. The treatment with test substances was effected at the early leaf stage (BBCH10-BBCH13). To assure uniform water supply, the potted plants were supplied with water by dam irrigation prior to substance application. The inventive compounds were first formulated as wettable powders (WP) or dissolved in a solvent mixture. The further dilution was effected with water supplemented with 0.2% wetting agent (e.g. agrotin). The finished spray liquor was sprayed onto the green parts of the plant at an equivalent water application rate of 600 l/ha. Substance application was followed immediately by stress treatment of the plants. Drought stress was induced by gradual drying out under the following conditions: “Day”: 14 hours with illumination at 26-30° C. “Night”: 10 hours without illumination at 18-20° C. The duration of the respective stress phases was guided mainly by the condition of the stressed control plants. It was ended (by re-irrigating and transfer to a greenhouse with good growth conditions) as soon as irreversible damage was observed on the stressed control plants. The end of the stress phase was followed by an about 7-day recovery phase, during which the plants were once again kept under good growth conditions in a greenhouse. The exact duration of the recovery phase was variable for reasons related to the trial. At the end of the recovery phase, the fresh weights of the plant parts above ground were determined. By comparison with unstressed control plants which were kept under good growth conditions over the entire duration of the trial, percentage damage intensities were first calculated from the fresh weight values. The reduction in damage intensity resulting from treatment with test substance was then calculated by the following formula: [formula] EF: Efficacy DIs: Damage intensity of the stressed control plants DIt: Damage intensity of the stressed plants treated with test compound The values reported in table D-1 below are results from at least three repeats. BRSNS=Brassica napus TRZAS=Triticum aestivum

Brassica napus = assay: Drought stress greenhouse test Part C, visual scoring vs stressed control plants; type: in vivo; settings: spray application 25 g/ha, efficacy range of 3-4 pots
Method: Seeds of monocotyledonous and dicotyledonous crop plants were sown in sandy loam in plastic or wood-fiber pots, covered with soil or sand and cultivated in a greenhouse under good growth conditions. The trial plants were treated at the early leaf stage (BBCH10-BBCH13). To assure uniform water supply before commencement of stress, the potted plants were supplied with water by dam irrigation prior to substance application. The inventive compounds were first formulated as wettable powders (WP) or dissolved in a solvent mixture. The further dilution was effected with water supplemented with 0.2% wetting agent (e.g. agrotin). The finished spray liquor was sprayed onto the green parts of the plant at an equivalent water application rate of 600 l/ha. Substance application was followed immediately by stress treatment of the plants. For this purpose, the wood-fiber pots were transferred in plastic inserts in order to prevent them from subsequently drying out too quickly. Drought stress was induced by gradual drying out under the following conditions: “Day”: 14 hours with illumination at 26-30° C. […] Once this juncture had been reached, the appearance of the plants treated with test substances was recorded in comparison to the stressed control plants by the following categories: [table] For each substance and dosage, 3-4 pots were treated and evaluated. […]

For `COC(=O)CCN1C(=O)CCc2cc(NS(=O)(=O)Cc3ccc(F)cc3)ccc21` [A51-158], the “EF [%] (TRZAS)” value (Triticum aestivum) was 11% and the “Effect (BRSNS)” value (Brassica napus) was 20-30.

From patent US20170027172A1, “USE OF SUBSTITUTE OXO TETRAHYDROQUINOLINE SULFONAMIDES OR SALTS THEREOF FOR RAISING STRESS TOLERANCE OF PLANTS” (BAYER CROPSCIENCE AKTIENGESELLSCHAFT, priority 2014, published 2017)
